According to patent US9938238B2, “Anti-auxin compounds” (priority 2015, dated 2018):

Tests used:
Assay type in all cases: in vivo, Arabidopsis
[1] = tested on: chiB and PDF1.2 expression; experiment: Expression of ethylene regulated defense genes in leaves; details: 24 h
Method: (§1) Total RNA was extracted from leaf tissue using the RNeasy Plant Mini Kit (Qiagen, Valencia, Calif.). 10 μg of total RNA was separated by electrophoresis in a 1% (w/v) denaturing agarose gel, after which the RNA was blotted to Zeta-Probe GT Blotting Membrane (Bio-Rad, Hercules, Calif.). ^32P-labelled probes were generated using the RadPrime DNA labeling system (Invitrogen).
For this analysis, Arabidopsis plants were grown hydroponically for 13 d after which they were treated with or without 10 μM ACC in the absence or presence of 25 μM PA, with all samples exposed to 10 μM+/−JA for the 24 h treatment period. […] Auxin functions in a synergistic manner with ethylene and JA to control expression of PDF1.2, with addition of auxin resulting in its hyperinduction (Robles et al., 2012).

[2] = tested on: ETR2, AtEBP, ACO2 expression; experiment: Northern analysis of ethylene responsive gene expression in seedlings; details: Col-0 wt, hydroponic, dark 4 d
Method: as §1
Manifestation of ethylene response is dependent on transcriptional induction of ethylene-regulated genes (Alonso et al., 2003; Chao et al., 1997; Solano et al., 1998). This relies on two primary transcription factors, EIN3 and EIL1, with mutational loss of both causing nearly complete ethylene insensitivity. It could be predicted that since PA treatment limits ethylene response it would also reduce or prevent ethylene inducible gene expression similar to the ethylene insensitive ein3-1; eil1-1 double mutant. To test this, Col-0 wt seedlings were treated with 5 μM AgNO3 or increasing concentrations of ethylene in the absence or presence of 25 μM PA, which is also a concentration that results in blockage of ethylene response. […] The latter two genes are not properly expressed in a group of enhanced ethylene response Arabidopsis mutants, with these argued to be members of a subset of ethylene regulated genes whose products are required for controlling the magnitude of ethylene response (Christians and Larsen, 2007; Christians et al., 2008; Deslauriers and Larsen, 2010; Robles et al., 2007).
In contrast to PA treatment, auxin has an antagonistic relationship regarding induction of this same subset of genes. Col-0 wt seedlings were grown hydroponically in the dark for 4 d in the presence of 5 μM AgNO3, 1 μM ACC or 10 μM ACC in the absence or presence of 10 μM 1-naphthaleneacetic acid (NAA) after which tissue was collected for RNA isolation and Northern analysis.

DR5::GUS = experiment: GUS analysis of auxin responsive DR5::GUS reporter line; details: for GUS activity in root tip and mature region of the root, auxin alone: 100 nM NAA or 750 nM IAA
Method: GUS analysis of DR5::GUS lines was performed as previously described (Ni et al., 2001).
Auxin responsiveness has also been assessed using the Arabidopsis DR5::GUS transgenic line in which several auxin response elements are fused upstream of the GUS reporter gene (Ni et al., 2001). Normally, treatment of DR5::GUS lines with exogenous auxin leads to increased GUS levels, which can be visualized through accumulation of blue color upon adding X-Gluc.

Col-0 wt seedlings = experiment: Blockage of auxin dependent inhibition of root growth; details: for root length, auxin alone: light, 7 d, 150 nM NAA or 300 nM IAA versus untreated roots
Method: For screening for chemicals that reduce ethylene response, Arabidopsis ctr1-3 seeds were planted on a microtiter plate containing PNS media in the presence of individual chemicals (50 μM concentration of each) from the Microsource Spectrum Collection. Seedlings were grown in the dark for 4 d after which they were scored for manifestation of the ethylene responsive triple response. For all other growth experiments, seedlings were planted on PNS media supplemented with the relevant chemical (Deslauriers and Larsen, 2010). For conditions requiring pamoic acid, media was supplemented with Pamoic acid disodium salt (Sigma Life Science, St. Louis, Mo.). Measurement of ethylene production was conducted as previously described (Deslauriers and Larsen, 2010). […]

ctr1-3 seedlings = experiment: Seedling triple response of constitutive ethylene response mutant ctr1-3 (library screen and follow-up); details: etiolated ctr1-3 in air, 4 d, 50 μM of each chemical
Method: For screening for chemicals that reduce ethylene response, Arabidopsis ctr1-3 seeds were planted on a microtiter plate containing PNS media in the presence of individual chemicals (50 μM concentration of each) from the Microsource Spectrum Collection. Seedlings were grown in the dark for 4 d after which they were scored for manifestation of the ethylene responsive triple response. For all other growth experiments, seedlings were planted on PNS media supplemented with the relevant chemical (Deslauriers and Larsen, 2010). For conditions requiring pamoic acid, media was supplemented with Pamoic acid disodium salt (Sigma Life Science, St. Louis, Mo.). Measurement of ethylene production was conducted as previously described (Deslauriers and Larsen, 2010).
A chemical library screen was performed in which etiolated seedlings of the constitutive ethylene response mutant, ctr1-3, were grown in air for 4 d in the presence of chemicals from the Microsource Spectrum Collection, a bioactive and natural compound library consisting of 2000 different compounds. ctr1-3 seedlings were scored for presentation of the ethylene regulated seedling triple response, consisting of severe hypocotyl and root shortening and exaggerated apical hook formation.

**Q.** What does the source list for `NC1(C(=O)O)CC1` [ACC, 1-aminocyclopropane-1-carboxylic acid]?
**A.** chiB and PDF1.2 expression ([1]; plants grown 13 d hydroponically, 10 μM ACC, 10 μM JA): increased expression; induction of ACO2 and AtEBP ([2]; 1 μM or 10 μM ACC without NAA): normal ethylene responsive induction

**Q.** For `O=C(O)Cc1c[nH]c2ccccc12` [IAA, indole-3-acetic acid], which “GUS activity in root tip and mature region of the root, auxin alone” value (DR5::GUS) is on record?
**A.** Its value is “increased GUS activity”.

**Q.** And the “lateral root initiation, auxin alone” value (DR5::GUS; 750 nM IAA (FIG. 8))?
**A.** Its value is “promotes initiation of lateral roots”.

**Q.** And the “root length, IAA alone” value (Col-0 wt seedlings; 5 days, 300 nM IAA in the absence of Tolmetin (FIG. 6))?
**A.** Its value is “severely inhibitory to roots”.

**Q.** What about the “root length, auxin alone” value (Col-0 wt seedlings) of the same compound?
**A.** The value was “severe root growth inhibition”.

**Q.** How did the “chiB and PDF1.2 levels” value ([1]; 10 μM ACC supplemented with 250 nM NAA) turn out when `O=C(O)Cc1cccc2ccccc12` [NAA, 1-naphthaleneacetic acid] was run?
**A.** Its value is “far greater than what was observed following treatment with ACC alone”.

**Q.** And the “GUS activity in root tip and mature region of the root, auxin alone” value (DR5::GUS)?
**A.** Its value is “increased GUS activity”.

**Q.** What about the “induction of ACO2 and AtEBP” value ([2]; 1 μM or 10 μM ACC plus 10 μM NAA) of the same compound?
**A.** The value was “nearly eliminated induction”.

**Q.** And the ETR2 expression ([2]; ACC treatments plus 10 μM NAA)?
**A.** The ETR2 expression was “no obvious effect on ETR2 expression”.

**Q.** And the “root length, auxin alone” value (Col-0 wt seedlings)?
**A.** The value was “severe root growth inhibition”.

**Q.** For `CN1CCCN=C1/C=C/c1cccs1` [Pyrantel pamoate], which “apical hook formation in chemical library screen” value (ctr1-3 seedlings) is on record?
**A.** Its value is “blocked apical hook formation”.

**Q.** And the “root length in chemical library screen” value (ctr1-3 seedlings)?
**A.** Its value is “measurably longer roots”.
